Results reported in ChEMBL document CHEMBL1201862, “PubChem BioAssay data set” (2004).
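All cell lines were grown in 96-well plates and treated with compound for 48 hours. GI50 marks 50% less growth.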 Calls of active or inactive are those of the source. No stated cut-off is given here; in the data, active = GI50 up to about 1.1 µM and inactive = higher.

Key:
Test in all cases: growth of human tumour cells (NCI), 48 h
UO-31 = test system: UO-31
RXF 393 = test system: RXF 393
DMS-114 = test system: DMS-114
KM12 = test system: KM12
OVCAR-8 = test system: OVCAR-8
SNB-78 = test system: SNB-78
UACC-257 = test system: UACC-257
ACHN = test system: ACHN
CCRF-CEM = test system: CCRF-CEM
HT-29 = test system: HT-29
SK-OV-3 = test system: SK-OV-3
A498 = test system: A498
SF-295 = test system: SF-295
HCT-116 = test system: HCT-116
SNB-75 = test system: SNB-75
HOP-92 = test system: HOP-92
MOLT-4 = test system: MOLT-4
XF498 = test system: XF498
OVCAR-3 = test system: OVCAR-3
IGROV-1 = test system: IGROV-1
NCI-H522 = test system: NCI-H522
786-0 = test system: 786-0
LXFL 529 = test system: LXFL 529
TK-10 = test system: TK-10
NCI-H23 = test system: NCI-H23
HCC 2998 = test system: HCC 2998
OVCAR-5 = test system: OVCAR-5
RXF 631 = test system: RXF 631
DMS-273 = test system: DMS-273
NCI-H460 = test system: NCI-H460
SF-268 = test system: SF-268
SF-539 = test system: SF-539
K562 = test system: K562
A549 = test system: A549
EKVX = test system: EKVX
U-251 = test system: U-251
SK-MEL-2 = test system: SK-MEL-2
LOX IMVI = test system: LOX IMVI
RPMI-8226 = test system: RPMI-8226
SW-620 = test system: SW-620
HOP-18 = test system: HOP-18
DLD-1 = test system: DLD-1
HOP-62 = test system: HOP-62
SK-MEL-28 = test system: SK-MEL-28
COLO 205 = test system: COLO 205
Malme-3M = test system: Malme-3M
KM-20L2 = test system: KM-20L2
HL-60 = test system: HL-60
OVCAR-4 = test system: OVCAR-4
M14 = test system: M14
M19-MEL = test system: M19-MEL
UACC-62 = test system: UACC-62
CAKI-1 = test system: CAKI-1
SNB-19 = test system: SNB-19
NCI-H226 = test system: NCI-H226
HCT-15 = test system: HCT-15
SN12C = test system: SN12C
SK-MEL-5 = test system: SK-MEL-5
SR = test system: SR

## Cc1ccc2c(c1)-c1c3c(nn1-c1ccccc1)-c1ccccc1SC3O2 (stereo unspecified)
UO-31
  GI50: > 100 µM (inactive)
RXF 393
  GI50: > 100 µM (inactive)
DMS-114
  GI50: > 100 µM (inactive)
KM12
  GI50: > 100 µM (inactive)
OVCAR-8
  GI50: > 100 µM (inactive)
SNB-78
  GI50: > 100 µM (inactive)
UACC-257
  GI50: > 100 µM (inactive)
ACHN
  GI50: > 100 µM (inactive)
CCRF-CEM
  GI50: > 100 µM (inactive)
HT-29
  GI50: > 100 µM (inactive)
SK-OV-3
  GI50: > 100 µM (inactive)
A498
  GI50: > 100 µM (inactive)
SF-295
  GI50: > 100 µM (inactive)
HCT-116
  GI50: > 100 µM (inactive)
SNB-75
  GI50: > 100 µM (inactive)
HOP-92
  GI50: > 100 µM (inactive)
MOLT-4
  GI50: > 100 µM (inactive)
XF498
  GI50: > 100 µM (inactive)
OVCAR-3
  GI50: > 100 µM (inactive)
IGROV-1
  GI50: > 100 µM (inactive)
NCI-H522
  GI50: > 100 µM (inactive)
786-0
  GI50: > 100 µM (inactive)
LXFL 529
  GI50: > 100 µM (inactive)
TK-10
  GI50: > 100 µM (inactive)
NCI-H23
  GI50: > 100 µM (inactive)
HCC 2998
  GI50: > 100 µM (inactive)
OVCAR-5
  GI50: 97.1 µM (inactive)
RXF 631
  GI50: 2.65 µM (inactive)
DMS-273
  GI50: > 100 µM (inactive)
NCI-H460
  GI50: > 100 µM (inactive)
SF-268
  GI50: > 100 µM (inactive)
SF-539
  GI50: > 100 µM (inactive)
K562
  GI50: > 100 µM (inactive)
A549
  GI50: > 100 µM (inactive)
EKVX
  GI50: > 100 µM (inactive)
U-251
  GI50: > 100 µM (inactive)
SK-MEL-2
  GI50: > 100 µM (inactive)
LOX IMVI
  GI50: > 100 µM (inactive)
RPMI-8226
  GI50: 63.8 µM (inactive)
SW-620
  GI50: > 100 µM (inactive)
HOP-18
  GI50: > 100 µM (inactive)
DLD-1
  GI50: > 100 µM (inactive)
HOP-62
  GI50: > 100 µM (inactive)
SK-MEL-28
  GI50: > 100 µM (inactive)
COLO 205
  GI50: > 100 µM (inactive)
Malme-3M
  GI50: > 100 µM (inactive)
KM-20L2
  GI50: > 100 µM (inactive)
HL-60
  GI50: > 100 µM (inactive)

## Cc1cc(Cl)ccc1NC(=O)CC1SC(Nc2ccccc2Cl)=NC1=O (stereo unspecified)
UO-31
  GI50: 35.5 µM (inactive)
OVCAR-4
  GI50: 41.3 µM (inactive)
RXF 393
  GI50: 26.1 µM (inactive)
DMS-114
  GI50: 21.1 µM (inactive)
KM12
  GI50: 33.3 µM (inactive)
OVCAR-8
  GI50: 29.6 µM (inactive)
SNB-78
  GI50: 49.5 µM (inactive)
M14
  GI50: 49.2 µM (inactive)
UACC-257
  GI50: 50.2 µM (inactive)
ACHN
  GI50: 43.3 µM (inactive)
CCRF-CEM
  GI50: 29.6 µM (inactive)
M19-MEL
  GI50: 38.9 µM (inactive)
HT-29
  GI50: 37.1 µM (inactive)
SK-OV-3
  GI50: 49.3 µM (inactive)
A498
  GI50: 65.6 µM (inactive)
SF-295
  GI50: 52.6 µM (inactive)
HCT-116
  GI50: 30.3 µM (inactive)
SNB-75
  GI50: 38.7 µM (inactive)
HOP-92
  GI50: 48.9 µM (inactive)
MOLT-4
  GI50: 30.2 µM (inactive)
XF498
  GI50: 62.1 µM (inactive)
UACC-62
  GI50: 30.3 µM (inactive)
OVCAR-3
  GI50: 28.3 µM (inactive)
IGROV-1
  GI50: 49.5 µM (inactive)
NCI-H522
  GI50: 29.8 µM (inactive)
786-0
  GI50: 53.8 µM (inactive)
LXFL 529
  GI50: 34.9 µM (inactive)
TK-10
  GI50: 88.5 µM (inactive)
NCI-H23
  GI50: 38.6 µM (inactive)
CAKI-1
  GI50: 41.7 µM (inactive)
HCC 2998
  GI50: 52.2 µM (inactive)
OVCAR-5
  GI50: > 100 µM (inactive)
SNB-19
  GI50: 32.4 µM (inactive)
RXF 631
  GI50: 45.6 µM (inactive)
DMS-273
  GI50: 26.4 µM (inactive)
NCI-H460
  GI50: 51.3 µM (inactive)
SF-268
  GI50: 39 µM (inactive)
NCI-H226
  GI50: 24.2 µM (inactive)
SF-539
  GI50: 20.3 µM (inactive)
K562
  GI50: 37.8 µM (inactive)
HCT-15
  GI50: 39.9 µM
A549
  GI50: 36.3 µM (inactive)
EKVX
  GI50: 73.3 µM (inactive)
SN12C
  GI50: 33.8 µM (inactive)
U-251
  GI50: 26.4 µM (inactive)
SK-MEL-2
  GI50: 48.4 µM (inactive)
RPMI-8226
  GI50: 23.2 µM (inactive)
SW-620
  GI50: 37.2 µM (inactive)
HOP-18
  GI50: > 100 µM (inactive)
DLD-1
  GI50: 28.1 µM (inactive)
SK-MEL-5
  GI50: 36.6 µM (inactive)
HOP-62
  GI50: > 100 µM (inactive)
SK-MEL-28
  GI50: 66.2 µM (inactive)
SR
  GI50: 20.6 µM (inactive)
COLO 205
  GI50: 19.2 µM (inactive)
Malme-3M
  GI50: 91.8 µM (inactive)
KM-20L2
  GI50: 26.8 µM (inactive)
HL-60
  GI50: 15.9 µM (inactive)

## CN(C)/C=N/c1nc2c(ncn2C2OC(CO)C(O)C2O)c(=O)[nH]1 (stereo unspecified)
UO-31
  GI50: > 100 µM (inactive)
OVCAR-4
  GI50: > 100 µM (inactive)
RXF 393
  GI50: > 100 µM (inactive)
DMS-114
  GI50: > 100 µM (inactive)
KM12
  GI50: > 100 µM (inactive)
OVCAR-8
  GI50: > 100 µM (inactive)
SNB-78
  GI50: > 100 µM (inactive)
M14
  GI50: > 100 µM (inactive)
UACC-257
  GI50: > 100 µM (inactive)
ACHN
  GI50: > 100 µM (inactive)
M19-MEL
  GI50: > 100 µM (inactive)
HT-29
  GI50: > 100 µM (inactive)
SK-OV-3
  GI50: > 100 µM (inactive)
A498
  GI50: > 100 µM (inactive)
SF-295
  GI50: > 100 µM (inactive)
HCT-116
  GI50: > 100 µM (inactive)
SNB-75
  GI50: > 100 µM (inactive)
HOP-92
  GI50: > 100 µM (inactive)
MOLT-4
  GI50: > 100 µM (inactive)
XF498
  GI50: > 100 µM (inactive)
UACC-62
  GI50: > 100 µM (inactive)
OVCAR-3
  GI50: > 100 µM (inactive)
IGROV-1
  GI50: > 100 µM (inactive)
786-0
  GI50: > 100 µM (inactive)
LXFL 529
  GI50: > 100 µM (inactive)
TK-10
  GI50: > 100 µM (inactive)
NCI-H23
  GI50: > 100 µM (inactive)
CAKI-1
  GI50: > 100 µM (inactive)
HCC 2998
  GI50: > 100 µM (inactive)
OVCAR-5
  GI50: > 100 µM (inactive)
SNB-19
  GI50: > 100 µM (inactive)
RXF 631
  GI50: > 100 µM (inactive)
DMS-273
  GI50: > 100 µM (inactive)
NCI-H460
  GI50: > 100 µM (inactive)
SF-268
  GI50: > 100 µM (inactive)
NCI-H226
  GI50: > 100 µM (inactive)
SF-539
  GI50: > 100 µM (inactive)
K562
  GI50: > 100 µM (inactive)
HCT-15
  GI50: > 100 µM
A549
  GI50: > 100 µM (inactive)
EKVX
  GI50: > 100 µM (inactive)
SN12C
  GI50: > 100 µM (inactive)
U-251
  GI50: > 100 µM (inactive)
SK-MEL-2
  GI50: > 100 µM (inactive)
RPMI-8226
  GI50: > 100 µM (inactive)
SW-620
  GI50: > 100 µM (inactive)
HOP-18
  GI50: > 100 µM (inactive)
DLD-1
  GI50: > 100 µM (inactive)
SK-MEL-5
  GI50: > 100 µM (inactive)
HOP-62
  GI50: > 100 µM (inactive)
SR
  GI50: > 100 µM (inactive)
COLO 205
  GI50: > 100 µM (inactive)
Malme-3M
  GI50: > 100 µM (inactive)
KM-20L2
  GI50: > 100 µM (inactive)
HL-60
  GI50: > 100 µM (inactive)
